# Experimental data published in publication PMC6821791, “Phase I Trial of Pyragrel, a Novel Thromboxane Synthetase Inhibitor, to Evaluate the Safety, Tolerability, and Pharmacokinetics in Healthy Volunteers” (Frontiers in Pharmacology, 2019).
# What was measured:
# [1] = Safety assessment, adverse event monitoring (Parts I-V); type: in vivo, human
# Description: Safety was assessed using subject interviews and adverse event (AE) monitoring. All subjects received laboratory examinations after termination of drug infusion for 48 or 72 h; the examination items are the same as those listed in the screening process. If clinical abnormalities were present, further follow-ups were required until the laboratory test values or vital sign levels of the abnormal items returned to normal values or stable levels. The clinical significance of abnormal laboratory test values was determined by the physicians.
# The vital signs were analyzed by repeated measures analysis of variance (ANOVA), and laboratory indexes were analyzed by the paired t-test and one-way ANOVA. Comparison within different dose regimens of pyragrel or among different treatments (pyragrel, ozagrel, and placebo) or production of urinary 11-D-HTXB2 among groups was performed with the t-test, and expected values were considered along with the actual situation. Descriptive methods were used to compare the incidence of AE between pyragrel and ozagrel/placebo or in different pyragrel dose regimens; the normal/abnormal changes in laboratory examinations before and after administration were described.
# [2] = set-up: method as in Morio et al., 1993; settings: patients with ozagrel treatment; ref Morio et al., 1993; cited from earlier work
# [3] = dog, in vivo; cited from earlier work
# [4] = Part I, controls of the 30 mg dose group (ozagrel 80 mg)
# [5] = Part I, controls of the 120 mg dose group (ozagrel 80 mg)
# [6] = Part I, controls of the 180 mg dose group (ozagrel 80 mg)
smiles,measurement,setting,value
"O=C(O)/C=C/c1ccc(Cn2ccnc2)cc1 [Ozagrel, Sodium ozagrel, reference compound]",Number of AEs in Part I,"[1]; Part I, 36 pyragrel-treated subjects, 8 subjects of ozagrel treatment",3
same,"AE Type, Ozagrel/placebo",[1]; [4],DB elevation
same,"Number of AEs, Ozagrel/placebo",[1]; [4],1
same,"Number of AEs, Ozagrel/placebo","[1]; Part I, controls of the 60 mg dose group (ozagrel 80 mg)",0
same,"AE Type, Ozagrel/placebo",[1]; [5],DB elevation
same,"Number of AEs, Ozagrel/placebo",[1]; [5],1
same,"AE Type, Ozagrel/placebo",[1]; [6],abdominal pain
same,"Number of AEs, Ozagrel/placebo",[1]; [6],1
same,"Number of AEs, Ozagrel/placebo","[1]; Part I, listed as of the 240 mg dose group",0
same,"Number of AEs, Ozagrel/placebo","[1]; Part I, listed as of the 300 mg dose group",0
same,"Number of AEs, Ozagrel/placebo",[1]; Total,3
same,Incidence of elevation in conjugated bilirubin (DB elevation),"[1]; all parts, 12/68 subjects of pyragrel, 2/8 subjects of ozagrel",25%
same,Incidence rate of severe bleeding,[2],up to 5%
same,Maximum safe dose,[3],12.5 mg/kg/day
